# Source: patent US9605317B2, “Biomarkers for assessing peripheral neuropathy response to cancer treatment” (Janssen Pharmaceutica NV, priority 2009, dated 2017)
# Read-outs that look alike come from different tables or passages of the source.
# Assays:
# [1] = tested on: patients with newly diagnosed multiple myeloma; conditions: human, in vivo, 4 cycles
# Description: A randomized, open-label, multicenter study was conducted that compared vincristine/adriamycin/dexamethasone (VAD) and VELCADE™/Dexamethasone as induction treatment prior to autologous hematopoietic stem cell transplantation (AHSCT) in patients up to (and including) the age of 65 with newly diagnosed multiple myeloma. Approximately 480 patients were included in this study. Subjects were randomized at diagnosis into one of 4 induction treatment arms: • A1 VAD (4 cycles) • A2 VAD (4 cycles) followed by Dexamethasone/cyclophosphomide/etoposide/cis-Platinum (DCEP) (2 cycles) • B1 VELCADE+dexamethasone (4 cycles) • B2 VELCADE+dexamethasone (4 cycles) followed by DCEP (2 cycles)
# Randomization was stratified based on the initial β2 microglobulin level (> or ≦3 mg/l) and the presence of chromosome 13 abnormalities identified by fluorescence in situ hybridization (FISH) analysis. After induction treatment (Arms A1 and B1) or after consolidation treatment (Arms A2 and B2) all of the patients underwent AHSCT.
# 470 samples were sent to Illumina for genotyping on 2016 SNPs in 172 non-mitochondria genes. Out of the 470 samples, 29 samples are Hapmap control subjects, 3 samples are controls subjects from a Belgium family, and another 4 are samples from Example 1 for quality control. Therefore, there were totally 434 unique subjects from this study (103 in A1, 105 in A2, 111 in B1, 111 in B2 and 4 not treated).
# After the quality control and filtering, 212 VELCADE treated subjects were included in the association analysis on non-mtSNPs.
# Based on the raw p-values for the association tests, none of the significant associations identified in Example 1 were replicated in Example 2. […] Patients with homogenous genotype of the minor allele of rs4553808 (GG) tend to have earlier onset of peripheral neuropathy than those that contain only 1 or 0 copy of the minor allele (AA/AG): median time to onset was 68 days vs. 70 days.
# The association with time and cumulative dosage of VELCADE™ to the onset of different levels of peripheral neuropathy in all 1908 SNPs in Example 2 was tested. No significant associations was identified after multiple testing correction using Bonfferoni (0.05/1908=2.62E-05).
# [2] = tested on: subjects with previously untreated multiple myeloma; experiment: Example 1 randomized open-label study, VMP vs MP: treatment-emergent peripheral neuropathy; conditions: human, in vivo, 54 weeks
# Description: A randomized, open-label, multicenter study was conducted, consisting of 3 Phases: a Pre-randomization (Screening) Phase, an Open-label Treatment Phase, and a Post-treatment Phase. Approximately 680 subjects with previously untreated multiple myeloma were randomly assigned to one of two treatment groups and were stratified according to baseline β2-microglobulin, baseline albumin levels and region (North America, Europe, other). Subjects received either VELCADE™/Melphalan/Prednisone (VMP) (Treatment Group A) or Melphalan/Prednisone (MP) (Treatment Group B). Subjects in Treatment Group A received VELCADE™ 1.3 mg/m^2 (twice weekly [Weeks 1, 2, 4, and 5] for four 6-week cycles [8 doses per cycle] followed by once weekly [Weeks 1, 2, 4, and 5] for five 6-week cycles [4 doses per cycle]) in combination with melphalan 9 mg/m^2 and prednisone 60 mg/m^2 (once daily on Days 1 to 4 of each 6-week cycle). Subjects in Treatment Group B received 9 cycles of melphalan 9 mg/m^2 and prednisone 60 mg/m^2 once daily on Days 1 to 4 of each 6-week cycle. For both groups, treatment continued for a maximum of 9 cycles (54 weeks) and subjects were discontinued if disease progression or an unacceptable treatment-related toxicity occurred, or if a subject withdrew consent.
# Included in the analysis are the 368 subjects who met all of the following criteria: consented to DNA analysis; had usable genotype data for SNPs listed in Appendix 1; had Adverse Event related clinical data before treatment and after at least one cycle of VELCADE™ treatment (including those having neurological events and those completing treatment with no neurological event). These 368 subjects included: Treatment Group A (154 Caucasian, 2 black, 10 Asian); Treatment Group B (168 Caucasian, 4 black, 12 Asian), and 18 were not treated.
# The primary adverse event endpoints are the treatment-emergent peripheral neuropathies caused by VELCADE™, including peripheral neuropathy NEC, peripheral sensory neuropathy, and neuralgia. For each specific peripheral neuropathy endpoint, the null hypothesis was that none of the successfully genotyped SNPs is associated with this specific treatment-emergent peripheral neuropathy. Each successfully genotyped SNP is tested to see whether there is a difference in the distribution of the genotypes of this SNP between patients with and without this specific VELCADE™ treatment-emergent peripheral neuropathy. The test result is subsequently adjusted by total number of successfully genotyped SNPs to correct multiplicity. […]
# [3] = tested on: patients with multiple myeloma; conditions: cited from earlier work
# patients = conditions: cited from earlier work
smiles,measurement,setting,value
"CC(C)C[C@H](NC(=O)[C@H](Cc1ccccc1)NC(=O)c1cnccn1)B(O)O [VELCADE, bortezomib]",Neuralgia,[1],9 cases
same,any one of the three adverse events (AE3),[1],51 cases
same,onset rate of peripheral neuropathy event,[1],44.8%
same,peripheral neuropathy NEC,[1],44 cases
same,peripheral sensory neuropathy,[1],8 cases
same,onset of any peripheral neuropathy,[2],72 events
same,onset of grade≧2 peripheral neuropathy,[2],50 events
same,onset of grade≧3 peripheral neuropathy,[2],21 events
same,onset rate of peripheral neuropathy event,[2],51.8%
same,patients with improvement or resolution of peripheral neuropathy,"[3]; after dose discontinuation, patients discontinuing due to Grade 2 PN or who had >Grade 3 PN",73%
same,patients with improvement or resolution of peripheral neuropathy,"[3]; after dose reduction, patients with >Grade 2 PN",51%
same,treatment cycle at which peripheral neuropathy reaches a plateau,patients; in vivo,5 cycle
same,mean rating of associated pain,patients; scale of 0 for no pain and 10 for worst imaginable pain,7.8
